{"source": "patent US20020183384A1", "about": "“Methods of treating nuclear factor-kappa B mediated diseases and disorders” (priority 2001, published 2002)", "data": [{"tested_on": "NF-κB mediated transcription", "test": "NF-κB driven β-lactamase reporter assay in ECV-304 NF-κB.βlaZ cells (AURORA CCF2 fluorescence)", "type": "cell-based, human", "conditions": "10 μM compound; ECV-304 NF-κB.βlaZ cells stimulated with 10 ng/mL TNF-α or 100 pg/mL IL-1β, 6 hours at 37° C.; inhibition of maximum blue/green ratio", "summary_of_the_method": "(§1)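 ECV-304 cells (clone 1E8) stably carrying a β-lactamase reporter driven by 5 HIV-1 NF-κB sites, plated in M-199 with 2% FBS, compound at 10 μM final. CCF2 read at 395 nm excitation, blue 460 nm/green 530 nm emission ratio; IC50 from dose-response curve.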", "units": {"Percent Inhibition at 10 μM": "%"}, "values": [{"compound": "[2-(2,4,6-Triisopropyl-phenyl)-acetyl]-sulfamic acid 4-(benzylamino-methyl)-2,6-diisopropyl-phenyl ester; compound with generic inorganic neutral component [Example 229]", "Percent Inhibition at 10 μM": 75.79}]}, {"tested_on": "NF-κB mediated transcription", "test": "NF-κB driven β-lactamase reporter assay in ECV-304 NF-κB.βlaZ cells (AURORA CCF2 fluorescence)", "type": "cell-based, human", "conditions": "10 μM compound; ECV-304 NF-κB.βlaZ cells stimulated with 10 ng/mL TNF-α or 100 pg/mL IL-1β, 6 hours at 37° C.; inhibition of maximum blue/green ratio; 10 µM", "summary_of_the_method": "as §1", "units": {"Percent Inhibition at 10 μM": "%"}, "values": [{"compound": "CCCCCCCCCCCCOC(=O)NS(=O)(=O)Nc1c(C(C)C)cccc1C(C)C", "note": "[Example 250, Carbamic acid, [[[2,6-bis(1-methylethyl)phenyl]amino]sulfonyl]-, dodecyl ester]", "Percent Inhibition at 10 μM": "<10"}]}, {"tested_on": "NF-κB mediated transcription", "test": "NF-κB driven β-lactamase reporter assay in ECV-304 NF-κB.βlaZ cells (AURORA CCF2 fluorescence)", "type": "cell-based, human", "conditions": "Homo sapiens, ECV-304, 6 h, 10 μM compound; ECV-304 NF-κB.βlaZ cells stimulated with 10 ng/mL TNF-α or 100 pg/mL IL-1β, 6 hours at 37° C.; inhibition of maximum blue/green ratio; read-out: Percent Inhibition at 10 μM", "summary_of_the_method": "as §1", "units": {"inhibition at 10 µM": "%"}, "values": [{"compound": "CC(C)c1cc(C(C)C)c(CC(=O)NS(=O)(=O)Oc2c(C(C)C)cc(NC(=O)[C@@H](N)C(C)C)cc2C(C)C)c(C(C)C)c1", "note": "[Example 232, [2-(2,4,6-Triisopropyl-phenyl)-acetyl]-sulfamic acid 4-((S)-2-amino-3-methyl-butyrylamino)-2,6-diisopropyl-phenyl ester; compound with trifluoro-acetic acid]", "inhibition at 10 µM": 76.9}, {"compound": "CC(C)c1cc(C(C)C)c(CC(=O)NS(=O)(=O)Oc2c(C(C)C)cc(CO)cc2C(C)C)c(C(C)C)c1", "note": "[Example 233, [(2,4,6-Triisopropyl-phenyl)-acetyl]-sulfamic acid 4-hydroxymethyl-2,6-diisopropyl-phenyl ester]", "inhibition at 10 µM": 76.9}, {"compound": "CC(C)c1cc(C(C)C)c(CC(=O)NS(=O)(=O)Oc2c(C(C)C)cc(C(N)=O)cc2C(C)C)c(C(C)C)c1", "note": "[Example 234, [(2,4,6-Triisopropyl-phenyl)-acetyl]-sulfamic acid 4-carbamoyl-2,6-diisopropyl-phenyl ester]", "inhibition at 10 µM": 76.7}, {"compound": "CC(C)c1cc(C(C)C)c(CC(=O)NS(=O)(=O)Oc2c(C(C)C)cc(NC(=S)Nc3cc(Cl)cc(Cl)c3)cc2C(C)C)c(C(C)C)c1", "note": "[Example 235, [(2,4,6-Triisopropyl-phenyl)-acetyl]-sulfamic acid 4-[3-(3,5-dichloro-phenyl)-thioureido]-2,6-diisopropyl-phenyl ester]", "inhibition at 10 µM": 146}, {"compound": "C/C(=C\\c1ccccc1)C(=O)NS(=O)(=O)Oc1c(C(C)C)cccc1C(C)C", "note": "[Example 236, ((E)-2-Methyl-3-phenyl-acryloyl)-sulfamic acid 2,6-diisopropyl-phenyl ester]", "inhibition at 10 µM": 79.4}, {"compound": "CC(C)c1cccc(C(C)C)c1OS(=O)(=O)NC(=O)c1cc2ccccc2oc1=O", "note": "[Example 237, (2-Oxo-2H-chromene-3-carbonyl)-sulfamic acid 2,6-diisopropyl-phenyl ester]", "inhibition at 10 µM": 57.1}, {"compound": "CCCCCCCCCCCCCCCCS(=O)(=O)NC(=O)Nc1c(C(C)C)cccc1C(C)C", "note": "[Example 238, N-[2,6-bis(1-methylethyl)phenyl]-N′-(hexadecylsulfonyl)-urea]", "inhibition at 10 µM": 12}, {"compound": "CCOc1ccc2nc(S(=O)(=O)NC(=O)Nc3c(C(C)C)cccc3C(C)C)sc2c1", "note": "[Example 239, N-[2,6-bis(1-methylethyl)phenyl]-N′-[(6-ethoxy-2-benzothiazolyl)sulfonyl]-urea]", "inhibition at 10 µM": "< 10"}, {"compound": "CCCCCCCCCCCCCCS(=O)(=O)NC(=O)Nc1c(C(C)C)cccc1C(C)C", "note": "[Example 240, N-[2,6-bis(1-methylethyl)phenyl]-N′-(tetradecylsulfonyl)-urea]", "inhibition at 10 µM": 10.3}, {"compound": "CCCCCCCCCCCCCCS(=O)(=O)N(C)C(=O)Nc1c(C(C)C)cccc1C(C)C", "note": "[Example 241, N′-[2,6-bis(1-methylethyl)phenyl]-N-methyl-N-(tetradecylsulfonyl)-urea]", "inhibition at 10 µM": "< 10"}, {"compound": "CCCCCCCCCCCCCS(=O)(=O)NC(=O)Nc1c(C(C)C)cccc1C(C)C", "note": "[Example 242, N-[2,6-bis(1-methylethyl)phenyl]-N′-(tridecylsulfonyl)urea]", "inhibition at 10 µM": "< 10"}, {"compound": "CCCCCCCCC(c1ccccc1)S(=O)(=O)NC(=O)Nc1c(C(C)C)cccc1C(C)C", "note": "(centres unmarked) [Example 243, N-[2,6-bis(1-methylethyl)phenyl]-N′-(1-phenyl-1-nonylsulfonyl)urea]", "inhibition at 10 µM": "< 10"}, {"compound": "CCCCCCCCC(C)S(=O)(=O)NC(=O)Nc1c(C(C)C)cccc1C(C)C", "note": "(centres unmarked) [Example 244, N-[2,6-bis(1-methylethyl)phenyl]-N′-(2-decylsulfonyl)urea]", "inhibition at 10 µM": "< 10"}, {"compound": "CCCCCCCCCCCCCC(c1ccccc1)S(=O)(=O)NC(=O)Nc1c(C(C)C)cccc1C(C)C", "note": "(centres unmarked) [Example 245, N-[2,6-bis(1-methylethyl)phenyl]-N′-(1-phenyl-1-tetradecylsulfonyl)urea]", "inhibition at 10 µM": 16.1}, {"compound": "CCCCCCCCCCCCCCCCC(C)S(=O)(=O)NC(=O)Nc1c(C(C)C)cccc1C(C)C", "note": "(centres unmarked) [Example 246, N-[2,6-bis(1-methylethyl)phenyl]-N′-(2-octadecylsulfonyl)urea]", "inhibition at 10 µM": "< 10"}, {"compound": "CCCCCCCCCCCCCCCCC(C)S(=O)(=O)NC(=O)Nc1c(OC)cc(OC)cc1OC", "note": "(centres unmarked) [Example 247, N-[2,4,6-trimethoxyphenyl]-N′-(2-octadecylsulfonyl)urea]", "inhibition at 10 µM": 14.8}, {"compound": "CCCCCCCCCCCCCC(C)(C)S(=O)(=O)NC(=O)Nc1c(C(C)C)cccc1C(C)C", "note": "[Example 248, N-[2,6-bis(1-methylethyl)phenyl]-N′-(2-methyl-2-pentadecylsulfonyl)urea]", "inhibition at 10 µM": 11.4}, {"compound": "CCCCCCCCCCCCCC(C)(C)S(=O)(=O)NC(=O)Nc1c(OC)cc(OC)cc1OC", "note": "[Example 249, N-[2,4,6-trimethoxyphenyl]-N′-(2-methyl-2-pentadecylsulfonyl)urea]", "inhibition at 10 µM": "< 10"}]}]}
